Data as given in patent publication US6933302B2, “Nitrogen-based homo-camptothecin derivatives” (California Pacific Medical Center, priority 2002, dated 2005).

Tested on: VM46 cells
Experiment: Cell colony formation assay
Type: cell-based
Settings: 72 hours drug incubation at 37° C., colonies counted after 8 days
Procedure: This example provides directions for growing cells and testing compounds of the invention for their effect on the growth of the cells. All cells can be purchased from DCTDC Tumor Repository, NCI, NIH.
Cell Colony Formation Assay
Five hundred cells (VM46) are plated in 60 mm Petri dishes containing 2.7 ml of medium (modified McCoy's 5a medium containing 10% fetal bovine serum and 100 units/ml penicillin and […]). The cells are incubated in a CO2 incubator at 37° C. for 5 hours for attachment to the bottom of Petri dishes. Drugs are made fresh in medium at ten times the final concentration, and then 0.3 ml of this stock solution is added to the 2.7 ml of medium in the dish. The cells are then incubated with drugs for 72 hours at 37° C. At the end of the incubation the drug-containing media are decanted, the dishes are rinsed with 4 ml of Hank's Balance Salt Solution (HBSS), 5 ml of fresh medium is added, and the dishes are returned to the incubator for colony formation. The cell colonies are counted using colony counter after incubation for 8 days for VM46 cells. Cell survival (%) is calculated .
Values of ID50 (the drug concentration producing 50% inhibition of colony formation) may be determined for each tested compound. Results are shown in Table I for hCPT as a compound of this invention taught in Example 16.

Structure (SMILES) | Value of ID50 (drug concentration producing 50% inhibition of colony formation)
CCC1(OC(=O)CCN2CCCCC2)CC(=O)OCc2c1cc1n(c2=O)Cc2cc3ccccc3nc2-1 (centres unmarked) [Example 021219, Homocamptothecin-20-O ester of 1-piperidine Propionic Acid] | 3.5 NM
CC[C@@]1(O)CC(=O)OCc2c1cc1n(c2=O)Cc2cc3ccccc3nc2-1 [hCPT, homo-camptothecin] | 4 NM
